Consider three compounds from publication PMC4590290 (Bioorganic chemistry, 2009).

Assay [1] has as its target T1, GlAD (Giardia duodenalis, UniProt Q27657). Briefly: steady-state inhibition, glutamate dehydrogenase-coupled assay. It is filed as biochemical.
Assay [2] has as its target T1, GlAD. It is filed as biochemical. As to conditions: read-out: KI; pH 7.5, 25 °C, 50 mM K+HEPES; covalent; irreversible, two-step inactivation; active site directed.

`N=C(N)NCCCC[C@H](N)C(=O)O` [L-homoarginine] yielded a Ki on GlAD [1] of 48 ± 6 mM.

Take `N[C@@H](CCSN=O)C(=O)O` [S-nitroso-L-homocysteine]: the KI (inactivation) on GlAD [2] is 40 ± 10 mM.

Consider `N=C(N)NCCCCN` [agmatine], for which the Ki on GlAD [1] was determined as 50 ± 10 mM.

The Ki is the equilibrium dissociation constant of an inhibitor or competing ligand from its target.
